From ChEMBL document CHEMBL1201862, “PubChem BioAssay data set” (2004) come the findings set out here.

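Five concentrations, 48 hours, 96-well plates. GI50 is the concentration that inhibits growth by half.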 The source made the active and inactive calls. Cut-off read from the data, not from the text of the source: active = GI50 up to about 1.1 µM and inactive = higher. Bounds are passed on as bounds.

Test systems include NCI-H226; MOLT-4; HOP-62; SK-MEL-2; NCI-H23; COLO 205; UO-31; IGROV-1; SNB-19; OVCAR-3; SF-295; SW-620; EKVX; HL-60; LOX IMVI; SF-268; OVCAR-4; NCI-H460; HT-29; SK-OV-3.
Holding throughout (test): NCI anticancer screen, dose series, 48 h

Consider `CON(C)c1nc(N(C)OC)nc(N(C)OC)n1`, for which the GI50 in the assay with NCI-H226, with MOLT-4, in the assay on HOP-62, in the assay with SK-MEL-2, in the assay with NCI-H23 and in the assay with COLO 205 was > 10 µM (inactive) in each case. For the same molecule, the GI50 with UO-31, with IGROV-1, in the assay with SNB-19, with OVCAR-3, in the assay on SF-295 and in the assay with SW-620 was > 10 µM (inactive) throughout. The GI50 with EKVX, in the assay on HL-60, in the assay with LOX IMVI, in the assay with SF-268, with OVCAR-4 and in the assay on NCI-H460 was > 10 µM (inactive) in each case. Besides, the GI50 in the assay with HT-29 and in the assay on SK-OV-3 was > 10 µM (inactive) throughout.

As to `O=C(N/N=C/c1cc(Br)cc(Br)c1O)c1ccccc1O`, the GI50 in the assay with NCI-H226 was 0.32 µM (active); with MOLT-4, 0.575 µM (active); in the assay on HOP-62, 0.832 µM (active); with SK-MEL-2, 0.433 µM (active); with NCI-H23, 0.52 µM (active); with COLO 205, 3.34 µM (inactive). The GI50 in the assay with UO-31 is 0.695 µM (active); in the assay on IGROV-1 it was 0.867 µM (active); with SNB-19, 0.912 µM (active); in the assay with OVCAR-3, 0.273 µM (active); with SF-295, 0.9 µM (active); with SW-620 it was 0.773 µM (active). Also, the GI50 is 1.18 µM (inactive) with EKVX; 0.15 µM (active) in the assay on HL-60; 0.399 µM (active) in the assay on LOX IMVI; 0.469 µM (active) in the assay on SF-268; 0.267 µM (active) in the assay with OVCAR-4; 0.64 µM (active) in the assay with NCI-H460. Moreover, the GI50 was 3.38 µM (inactive) with HT-29 and 1.06 µM (active) in the assay on SK-OV-3.

For `N#Cc1c(OCCF)c2ccccc2n2c1nc1ccccc12`, the GI50 was 63.5 µM (inactive) with NCI-H226; 27.8 µM (inactive) with MOLT-4; 29.9 µM (inactive) with HOP-62; > 100 µM (inactive) in the assay with SK-MEL-2; 69 µM (inactive) in the assay with NCI-H23; > 100 µM (inactive) with COLO 205. Further, the GI50 in the assay with UO-31 was 14.2 µM (inactive); in the assay on IGROV-1, 23.8 µM (inactive); with SNB-19, 29.2 µM (inactive); with OVCAR-3, 67 µM (inactive); in the assay with SF-295, 23.9 µM (inactive); in the assay on SW-620 it was > 100 µM (inactive). Moreover, the GI50 with EKVX is 99.1 µM (inactive); in the assay on HL-60, 97.7 µM (inactive); with LOX IMVI it was 31.3 µM (inactive); with SF-268, 27 µM (inactive); with OVCAR-4 it was 32.3 µM (inactive); in the assay on NCI-H460 it was 21.7 µM (inactive). Besides, the GI50 was 64.3 µM (inactive) with HT-29 and 27 µM (inactive) in the assay on SK-OV-3.

As to `COCCCNc1nc(N)c(C#N)c(C#N)c1C#N`, the GI50 in the assay on NCI-H226, with MOLT-4, in the assay with HOP-62, in the assay on SK-MEL-2, in the assay with NCI-H23 and with COLO 205 was > 10 µM (inactive) each time. Besides, the GI50 in the assay with UO-31, in the assay with IGROV-1, in the assay on SNB-19, with OVCAR-3, with SF-295 and with SW-620 was > 10 µM (inactive) each time. Also, the GI50 in the assay on EKVX is > 10 µM (inactive); with HL-60, 4.47 µM (inactive); in the assay with LOX IMVI, > 10 µM (inactive); in the assay on SF-268, > 10 µM (inactive); in the assay with OVCAR-4, > 10 µM (inactive); in the assay with NCI-H460, > 10 µM (inactive). For the same molecule, the GI50 in the assay with HT-29 and in the assay on SK-OV-3 was > 10 µM (inactive) throughout.
